Source: patent US9580463B2 (BRISTOL-MYERS SQUIBB COMPANY, priority 2013, dated 2017)

Details: from C=CCCC(C)C[C@@H](COC)[C@H](NC(=O)OC(C)(C)C)C(=O)N1C[C@H](O)C[C@H]1C(=O)N[C@]1(C(=O)NS(=O)(=O)C2(C)CC2)C[C@H]1C=C; rcm bond; 15-membered ring; Hoveyda-Grubbs II; DCE; 7.5 mM; 80.0 °C

## COC[C@@H]1CC(C)CC/C=C\[C@@H]2C[C@@]2(C(=O)NS(=O)(=O)C2(C)CC2)NC(=O)[C@@H]2C[C@@H](O)CN2C(=O)[C@H]1NC(=O)OC(C)(C)C (stereo partly shown)
  ring closure, isolated yield: 76%
